Results on one compound are retold here after patent publication US20160185717A1, “COMPOUNDS WITH ANTIBACTERIAL ACTIVITY” (FUNDACIÓN MEDINA. CENTRO DE EXCELENCIA EN INVESTIGACIÓN DE …, priority 2013, published 2016).

In experiment [1] the test system is DNA synthesis in E. coli acrAB::Tn903. The experiment is described as follows: Macromolecular labeling assay, DNA synthesis. Format: cell-based, Escherichia coli. As to conditions: at up to 8-fold the MIC, [3H] thymidine. The procedure: (§1) The macromolecular synthesis assay, in which the inhibition of the intracellular building blocks of macromolecules are measured, provides guidance for understanding the broad MOA of compounds
(§2) The inhibitory effect on synthesis of macromolecules in the lipid, cell wall, DNA, RNA and protein synthesis pathways was determined in growing cells of E. coli acrAB::Tn903. Cells were grown at 35° C. overnight on Trypticase Soy agar, and this culture was used to inoculate 15 ml of Mueller Hinton broth II (MHB). The culture was grown to early exponential growth phase (OD600=0.2 to 0.3) while incubating in a shaker at 35° C. and 200 rpm.
(§3) Cells in early exponential phase were exposed to MDN-0057, and their incorporation of radioactive precursors in each pathway was determined. Rifampicin, Ciprofloxacin, Tetracycline, Imipenem and Irgasan were included as positive controls for inhibition of RNA, DNA, protein, cell wall and lipid synthesis, respectively. (FIG. 1)
(§4) DNA, RNA, and protein synthesis: When cells reached early exponential phase, 100 μL of culture was added to triplicate wells containing various concentrations of MDN-0057 or control antibiotics (2.5 μL) at 40× the final concentration in 100% DMSO or deionized water (dH2O). […] After washing five times with 200 μL per well of cold 5% TCA, the filters were allowed to dry, and then counted using a Packard Top Count microplate scintillation counter.

The test system of the next experiment is K. pneumoniae 21. The experiment is described as follows: Broth microdilution MIC. It counts as cell-based, Klebsiella pneumoniae. As to conditions: K. pneumoniae 21, permeable strain. The procedure:
(§5) Antibacterial activity of compounds MDN-0057, MDN-0058, MDN-0059 and MDN-0060 was evaluated using the broth microdilution methodology. This method is used to determine minimum inhibitory concentrations (MICs) which are defined as the lowest concentration of an antimicrobial compound that will inhibit the visible growth of a microorganism after overnight incubation.
(§6) In the microbroth dilution assay, microorganisms were selected by streaking bacteria culture from a cryovial into Mueller Hinton II (MHII) agar plate(s) and incubate overnight at 37° C. Thereafter, 3 to 5 characteristic fresh colonies were selected and suspended in 25 mL of MHII broth media for 2 hours shaking at 220 rpm. The 2 hour broth cultures were adjusted to an optical density of 0.111 at 660 nm and then diluted to 1:100 in order to obtain assay inoculums.
(§7) The four compounds evaluated were serially diluted in 100% DMSO with a dilution factor of 2 to provide 10 compound concentrations starting at 8 mg/mL.
(§8) For the assays, 90 μL/well of the appropriated diluted inoculum were mixed with 1.6 μL/well of each compound concentration and 8.4 μL/well of MHII broth media, resulting in an additional dilution of these compounds to yield concentrations in the assay wells from 128 μg/mL to 0.25 μg/mL. After that, the assay plates were read in a Tecan Ultraevolution spectrophotometer at 612 nm for T0 (zero time). Then, the plates were statically incubated at 37° C. for 20 hours. After incubation, they were shaken in a DPC Micromix-5 and read again for Tf (final time). Percentage of growth inhibition was calculated using the following normalization:
(§9) % Inhibition=[1-[(TfSample-T0Sample)−(TfBlank-T0blank)/(TfGrowth-T0Growth)−(TfBlank-T0blank)]×100. • Where, • T0 Sample=the absorbance of the strain growth in the presence of sample measured at zero time (before incubation). • Tf Sample=the absorbance of the strain growth in the presence of sample measured at final time (after incubation) • T0 Growth=the absorbance of the strain growth in the absence of sample measured at zero time (before incubation). • Tf Growth=the absorbance of the strain growth in the absence of sample measured at final time (after incubation). • T0 Blank=the absorbance of the broth medium (blank) measured at zero time (before incubation). • Tf Blank=the absorbance of the broth medium (blank) measured at final time (after incubation).

Another experiment has as its system K. pneumoniae 847. Description: Broth microdilution MIC. It counts as cell-based, Klebsiella pneumoniae. The following applies: K. pneumoniae 847, Clinical isolate. The procedure: as §5, §6, §7, §8, §9
Experiment [2] concerns wild type (WT) Acinetobacter baumannii (ATCC BAA-747). The experiment is described as follows: Resistance bioassay on A. baumannii. Format: cell-based. The protocol: The frequency of resistance to MDN-0057 and MDN-0058 was assessed on Escherichia coli acrAB::Tn903 (CB-219) and wild type (WT) Acinetobacter baumannii (ATCC BAA-747). For this purpose, the Minimum Inhibitory Concentration of MDN-0057 versus each strain was determined by broth microdilution as described in Clinical Laboratory Standards Institute publication M07-A9, Vol. 32, No. 2., “Methods for Dilution Antimicrobial Susceptibility Tests for Bacteria that Grow Aerobically; Approved Standard—Ninth Edition,” January 2012. Six-well plates containing Mueller Hinton II agar (5 mL per well) were prepared with MDN-0057 or MDN-0058 at concentrations 4-fold and 8-fold above the MIC. Cultures were grown to late log phase and spread on the agar. Plates were incubated at 37° C. and examined after one and two days of incubation.
Six to eight isolates from each species were obtained by re-streaking growth from the plates on antibiotic-free tryptic soy agar plates, and MICs of MDN-0057 versus the isolates were subsequently determined. MICs of the E. coli isolates were elevated at least 16-64-fold relative to their parent strain, CB-219.

The subject of experiment [3] is protein synthesis in E. coli acrAB::Tn903. The experiment is described as follows: Macromolecular labeling assay, protein synthesis. Format: cell-based, Escherichia coli. As to conditions: at up to 8-fold the MIC, [3H] leucine. The protocol: as §1, §2, §3, §4
The next experiment has as its system A. baumannii 2445. The experiment is described as follows: Broth microdilution MIC. Format: cell-based, Acinetobacter baumannii. As to conditions: A. baumannii 2445, ΔadeABC. The procedure:
as §5, §6, §7, §8, §9
A general note: In broth dilution the organism is exposed to a series of concentrations in liquid medium.

The test system of a further experiment is A. baumannii 5973. The experiment is described as follows: Broth microdilution MIC. The following applies: A. baumannii 5973, Clinical isolate. Format: cell-based, Acinetobacter baumannii. The protocol: as §5, §6, §7, §8, §9

In brackets after ≈: the same amount, converted by molar mass.

In general, MIC refers to the lowest concentration that inhibits growth of the organism. With `[C-]#[N+]C(=C)C(Cc1ccc(OC)cc1)([N+]#[C-])C1CC(O)CCC1OC(=O)CO` (centres unmarked) [MDN-0057], the “Inhibition of DNA synthesis” value in experiment [1] is recorded as “Little or no inhibition”. Further, the MIC against K. pneumoniae 21 came to 0.25 µg/mL (≈ 0.65 µM); with K. pneumoniae 847, 64 µg/mL (≈ 166 µM); in the experiment on A. baumannii 2445, 2 µg/mL (≈ 5.2 µM); with A. baumannii 5973, 0.25 µg/mL (≈ 0.65 µM). Further, in experiment [2] (A. baumannii, 4-fold and 8-fold above the broth MIC, after 24 hours of incubation), the “Growth on agar containing compound (frequency of resistance)” value is “a lawn of colonies was apparent”. Further, the “MICs of the A. baumannii isolates compared with parent strain A. baumannii BAA-747” value in experiment [2] (six to eight isolates re-streaked from the plates) is recorded as “not significantly different”. In addition, the “Inhibition of protein synthesis” value in experiment [3] is “Little or no inhibition”.
